Test results taken from ChEMBL document CHEMBL4152336, “Optimization of the first small-molecule relaxin/insulin-like family peptide receptor (RXFP1) agonists: Activation results in an antifibrotic gene expression profile” (Eur J Med Chem, 2018).
The source made the active and inactive calls. No cut-off for these calls is given here.

Legend:
Mus musculus [1] = experiment: Toxicity in C57/BL6 mouse at 3 to 30 mg/kg, iv; format: organism-based; details: in vivo
Mus musculus [2] = experiment: Toxicity in C57/BL6 mouse assessed as abnormal behavior at 3 to 30 mg/kg, po; format: organism-based; details: in vivo
[3] = Drug level in C57/BL6 mouse heart at 3 mg/kg, iv after 0.08 hrs; format: ADME, organism-based; details: in vivo
[4] = Drug level in C57/BL6 mouse heart at 3 mg/kg, iv after 3 hrs; format: ADME, organism-based; details: in vivo
[5] = Drug level in C57/BL6 mouse heart at 3 mg/kg, iv after 24 hrs; format: ADME, organism-based; details: in vivo
[6] = Drug level in C57/BL6 mouse heart at 30 mg/kg, po after 1.5 hr; format: ADME, organism-based; details: in vivo
Mus musculus [7] = experiment: Toxicity in C57/BL6 mouse assessed as body weight at 90 mg/kg, po treated for 5 days measured at day 1 post last dose (reference value: 20.3 +/- 2.6 g); format: organism-based; details: in vivo, 120 h
Mus musculus [8] = experiment: Toxicity in C57/BL6 mouse assessed as body weight at 90 mg/kg, po treated for 5 days measured at day 2 post last dose (reference value: 19.8 +/- 2.3 g); format: organism-based; details: in vivo, 120 h
Mus musculus [9] = experiment: Toxicity in C57/BL6 mouse assessed as body weight at 90 mg/kg, po treated for 5 days measured at day 5 post last dose (reference value: 20.3 +/- 2.8 g); format: organism-based; details: in vivo, 120 h
Mus musculus [10] = experiment: Toxicity in C57/BL6 mouse assessed as body weight at 300 mg/kg, po treated for 5 days measured at day 5 post last dose (reference value: 20.3 +/- 2.8 g); format: organism-based; details: in vivo, 120 h
Mus musculus [11] = experiment: Toxicity in C57/BL6 mouse assessed as body weight at 90 mg/kg, po treated for 5 days measured at day 6 post last dose (reference value: 20.6 +/- 2.6 g); format: organism-based; details: in vivo, 120 h
Mus musculus [12] = experiment: Toxicity in C57/BL6 mouse assessed as body weight at 90 mg/kg, po treated for 5 days measured at day 7 post last dose (reference value: 20.6 +/- 2.9 g); format: organism-based; details: in vivo, 120 h
Mus musculus [13] = experiment: Toxicity in C57/BL6 mouse assessed as body weight at 300 mg/kg, po treated for 5 days measured at day 7 post last dose (reference value: 20.6 +/- 2.9 g); format: organism-based; details: in vivo, 120 h
Mus musculus [14] = experiment: Toxicity in C57/BL6 mouse assessed as body weight at 300 mg/kg, po treated for 5 days measured at day 8 post last dose (reference value: 20.6 +/- 2.8 g); format: organism-based; details: in vivo, 120 h
Mus musculus [15] = experiment: Toxicity in C57/BL6 mouse assessed as body weight at 300 mg/kg, po treated for 5 days measured at day 10 post last dose (reference value: 20.7 +/- 2.6 g); format: organism-based; details: in vivo, 120 h
Homo sapiens [16] = organism: Homo sapiens; experiment: Down regulation of ACTA2 gene expression in human HSC at 5 uM after 24 to 72 hrs by RT-qPCR analysis; format: functional
Homo sapiens [17] = organism: Homo sapiens; experiment: Down regulation of TGFB1 gene expression in human HSC at 5 uM after 24 to 72 hrs by RT-qPCR analysis; format: functional
Homo sapiens [18] = organism: Homo sapiens; experiment: Down regulation of COL1A1 gene expression in human HSC at 5 uM after 24 to 72 hrs by RT-qPCR analysis; format: functional

## CC(C)Oc1ccccc1C(=O)Nc1ccccc1C(=O)Nc1cccc(S(=O)(=O)C(F)(F)F)c1
Mus musculus [1]
  Activity: Non-Toxic
Mus musculus [2]
  Activity: Non-Toxic
[3]
  Drug uptake: 4.12 µmol/kg
[4]
  Drug uptake: 0.6 µmol/kg
[5]
  Drug uptake: 0.109 µmol/kg
[6]
  Drug uptake: 2.026 µmol/kg
Mus musculus [7]
  Activity: 19.9 g
Mus musculus [8]
  Activity: 19.9 g
Mus musculus [9]
  Activity: 20 g
Mus musculus [10]
  Activity: 20.6 g
Mus musculus [11]
  Activity: 20.4 g
Mus musculus [12]
  Activity: 20.4 g
Mus musculus [13]
  Activity: 20.9 g
Mus musculus [14]
  Activity: 21.2 g
Mus musculus [15]
  Activity: 21.3 g
Homo sapiens [16]
  Activity: Active
Homo sapiens [17]
  Activity: Active
Homo sapiens [18]
  Activity: Active
